Assay results reported in ChEMBL document CHEMBL5104164, “Design, synthesis, and biological evaluation of pyrrolopyrimidine derivatives as novel Bruton's tyrosine kinase (BTK) inhibitors” (Eur J Med Chem, 2022).
pIC50: −log10 of the molar value. Calls of active or inactive are those of the source. No cut-off for these calls is given here.

Key:
[1] = target: T1, Tyrosine-protein kinase BTK (Homo sapiens, UniProt Q06187); assay: Inhibition of BTK (unknown origin) measured by ADP-Glo assay
TMD8 [2] = assay: Antiproliferative activity against human TMD8 cells incubated for 72 hrs by CellTiter-Glo assay; details: TMD8, 72 h
[3] = Tmax in male BALB/c mouse at 2 mg/kg, iv; format: ADME, organism-based; details: in vivo
[4] = Cmax in male BALB/c mouse at 2 mg/kg, iv; format: ADME, organism-based; parameters: dose 2 mg/kg, route iv; details: in vivo
[5] = Half-life in male BALB/c mouse at 2 mg/kg, iv; format: ADME, organism-based; details: in vivo
[6] = Apparent volume of distribution in male BALB/c mouse at 2 mg/kg, iv; format: ADME, organism-based; details: in vivo, read-out: Vz
[7] = Clearance in male BALB/c mouse at 2 mg/kg, iv; format: ADME, organism-based; details: in vivo
[8] = Oral bioavailability in male BALB/c mouse; format: ADME, organism-based; details: in vivo
[9] = Tmax in male BALB/c mouse at 10 mg/kg, po; format: ADME, organism-based; details: in vivo
[10] = Cmax in male BALB/c mouse at 10 mg/kg, po; format: ADME, organism-based; parameters: dose 10 mg/kg, route po; details: in vivo
[11] = target: Epidermal growth factor receptor (Homo sapiens) (UniProt P00533); assay: Inhibition of EGFR (unknown origin) assessed as residual percent of control at 1 uM measured by DiscoverX kinome scan assay relative to control
Chain of Epidermal growth factor receptor (Homo sapiens) (P00533 whole entry): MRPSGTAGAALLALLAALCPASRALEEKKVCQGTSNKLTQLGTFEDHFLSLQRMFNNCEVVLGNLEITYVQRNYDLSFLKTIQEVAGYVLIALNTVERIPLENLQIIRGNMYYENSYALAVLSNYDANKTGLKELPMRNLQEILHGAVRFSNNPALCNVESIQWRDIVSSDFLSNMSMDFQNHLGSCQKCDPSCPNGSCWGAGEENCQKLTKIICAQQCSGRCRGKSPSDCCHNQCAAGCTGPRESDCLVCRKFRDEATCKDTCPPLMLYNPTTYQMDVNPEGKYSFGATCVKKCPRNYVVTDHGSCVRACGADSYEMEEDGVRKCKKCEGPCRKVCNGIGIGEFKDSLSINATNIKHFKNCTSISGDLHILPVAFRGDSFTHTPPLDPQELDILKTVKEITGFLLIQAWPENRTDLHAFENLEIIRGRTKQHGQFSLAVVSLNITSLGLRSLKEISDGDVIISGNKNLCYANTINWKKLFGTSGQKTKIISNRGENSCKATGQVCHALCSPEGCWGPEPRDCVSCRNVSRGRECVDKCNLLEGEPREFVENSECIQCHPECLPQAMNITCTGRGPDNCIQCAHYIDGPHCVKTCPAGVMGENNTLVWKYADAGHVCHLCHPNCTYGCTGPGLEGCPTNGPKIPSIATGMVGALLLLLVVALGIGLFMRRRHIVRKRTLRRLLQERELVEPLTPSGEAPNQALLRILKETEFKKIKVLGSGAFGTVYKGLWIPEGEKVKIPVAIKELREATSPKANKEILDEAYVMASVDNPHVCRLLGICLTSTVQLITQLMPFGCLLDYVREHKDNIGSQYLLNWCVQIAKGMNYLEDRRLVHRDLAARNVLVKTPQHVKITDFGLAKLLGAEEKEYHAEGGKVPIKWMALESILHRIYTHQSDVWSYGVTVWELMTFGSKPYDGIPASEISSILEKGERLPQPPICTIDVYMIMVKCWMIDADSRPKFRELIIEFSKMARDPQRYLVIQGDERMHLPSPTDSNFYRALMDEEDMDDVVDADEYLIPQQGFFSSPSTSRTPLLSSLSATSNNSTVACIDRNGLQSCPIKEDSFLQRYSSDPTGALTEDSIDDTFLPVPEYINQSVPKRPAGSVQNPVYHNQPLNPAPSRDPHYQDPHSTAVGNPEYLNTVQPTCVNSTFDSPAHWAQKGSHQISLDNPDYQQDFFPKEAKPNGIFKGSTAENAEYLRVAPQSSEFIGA

Rec1 = assay: Antiproliferative activity against human REC1 cells incubated for 72 hrs by CellTiter-Glo assay; format: functional, cell-based; details: Rec1, 72 h
Pfeiffer = assay: Antiproliferative activity against human Pfeiffer cells incubated for 72 hrs by CellTiter-Glo assay; format: functional, cell-based
OCI-Ly3 = assay: Antiproliferative activity against human OCILY3 cells incubated for 72 hrs by CellTiter-Glo assay; format: functional, cell-based; details: OCI-Ly3, 72 h
SUD4 = assay: Antiproliferative activity against human SU-DHL-4 cells incubated for 72 hrs by CellTiter-Glo assay; format: functional, cell-based; details: SU-DHL-4, 72 h
DOHH-2 = assay: Antiproliferative activity against human DOHH-2 cells incubated for 72 hrs by CellTiter-Glo assay; format: functional, cell-based; details: DOHH-2, 72 h
SU-DHL-6 = assay: Antiproliferative activity against human SU-DHL-6 cells incubated for 72 hrs by CellTiter-Glo assay; format: functional, cell-based; details: SU-DHL-6, 72 h
Ramos = assay: Antiproliferative activity against human Ramos cells incubated for 72 hrs by CellTiter-Glo assay; format: functional, cell-based
[12] = target: T1, Tyrosine-protein kinase BTK; assay: Inhibition of BTK in human TMD8 cells assessed as inhibition of BTK autophosphorylation at Tyr223 measured by Western blot analysis; format: cell-based
TMD8 [13] = assay: Cell cycle arrest in human TMD8 cells assessed as accumulation of cells at G0/G1 phase at 1 nM after 48 hrs by propidium iodide staining based flow cytometric analysis (reference value: 32.9%); format: functional
TMD8 [14] = assay: Cell cycle arrest in human TMD8 cells assessed as accumulation of cells at S phase at 1 nM after 48 hrs by propidium iodide staining based flow cytometric analysis (reference value: 49.3%); format: functional
TMD8 [15] = assay: Cell cycle arrest in human TMD8 cells assessed as accumulation of cells at G2 phase at 1 nM after 48 hrs by propidium iodide staining based flow cytometric analysis (reference value: 13.4%); format: functional
TMD8 [16] = assay: Cell cycle arrest in human TMD8 cells assessed as accumulation of cells at G0/G1 phase at 10 nM after 48 hrs by propidium iodide staining based flow cytometric analysis (reference value: 32.9%); format: functional
TMD8 [17] = assay: Cell cycle arrest in human TMD8 cells assessed as accumulation of cells at S phase at 10 nM after 48 hrs by propidium iodide staining based flow cytometric analysis (reference value: 49.3%); format: functional
TMD8 [18] = assay: Cell cycle arrest in human TMD8 cells assessed as accumulation of cells at G0/G1 phase at 100 nM after 48 hrs by propidium iodide staining based flow cytometric analysis (reference value: 32.9%); format: functional
TMD8 [19] = assay: Cell cycle arrest in human TMD8 cells assessed as accumulation of cells at S phase at 100 nM after 48 hrs by propidium iodide staining based flow cytometric analysis (reference value: 49.3%); format: functional
TMD8 [20] = assay: Cell cycle arrest in human TMD8 cells assessed as accumulation of cells at G2 phase at 100 nM after 48 hrs by propidium iodide staining based flow cytometric analysis (reference value: 13.4%); format: functional
TMD8 [21] = assay: Induction of apoptosis in human TMD8 cells assessed as apoptotic cells 10 nM incubated for 72 hrs by AnnexinV-FITC/propidium iodide staining based flow cytometric analysis; format: functional
TMD8 [22] = assay: Induction of apoptosis in human TMD8 cells assessed as apoptotic cells 100 nM incubated for 72 hrs by AnnexinV-FITC/propidium iodide staining based flow cytometric analysis; format: functional
[23] = target: Voltage-gated inwardly rectifying potassium channel KCNH2 (Homo sapiens, UniProt Q12809); assay: Inhibition of hERG; format: toxicity
Chain of Voltage-gated inwardly rectifying potassium channel KCNH2 (Q12809 whole entry): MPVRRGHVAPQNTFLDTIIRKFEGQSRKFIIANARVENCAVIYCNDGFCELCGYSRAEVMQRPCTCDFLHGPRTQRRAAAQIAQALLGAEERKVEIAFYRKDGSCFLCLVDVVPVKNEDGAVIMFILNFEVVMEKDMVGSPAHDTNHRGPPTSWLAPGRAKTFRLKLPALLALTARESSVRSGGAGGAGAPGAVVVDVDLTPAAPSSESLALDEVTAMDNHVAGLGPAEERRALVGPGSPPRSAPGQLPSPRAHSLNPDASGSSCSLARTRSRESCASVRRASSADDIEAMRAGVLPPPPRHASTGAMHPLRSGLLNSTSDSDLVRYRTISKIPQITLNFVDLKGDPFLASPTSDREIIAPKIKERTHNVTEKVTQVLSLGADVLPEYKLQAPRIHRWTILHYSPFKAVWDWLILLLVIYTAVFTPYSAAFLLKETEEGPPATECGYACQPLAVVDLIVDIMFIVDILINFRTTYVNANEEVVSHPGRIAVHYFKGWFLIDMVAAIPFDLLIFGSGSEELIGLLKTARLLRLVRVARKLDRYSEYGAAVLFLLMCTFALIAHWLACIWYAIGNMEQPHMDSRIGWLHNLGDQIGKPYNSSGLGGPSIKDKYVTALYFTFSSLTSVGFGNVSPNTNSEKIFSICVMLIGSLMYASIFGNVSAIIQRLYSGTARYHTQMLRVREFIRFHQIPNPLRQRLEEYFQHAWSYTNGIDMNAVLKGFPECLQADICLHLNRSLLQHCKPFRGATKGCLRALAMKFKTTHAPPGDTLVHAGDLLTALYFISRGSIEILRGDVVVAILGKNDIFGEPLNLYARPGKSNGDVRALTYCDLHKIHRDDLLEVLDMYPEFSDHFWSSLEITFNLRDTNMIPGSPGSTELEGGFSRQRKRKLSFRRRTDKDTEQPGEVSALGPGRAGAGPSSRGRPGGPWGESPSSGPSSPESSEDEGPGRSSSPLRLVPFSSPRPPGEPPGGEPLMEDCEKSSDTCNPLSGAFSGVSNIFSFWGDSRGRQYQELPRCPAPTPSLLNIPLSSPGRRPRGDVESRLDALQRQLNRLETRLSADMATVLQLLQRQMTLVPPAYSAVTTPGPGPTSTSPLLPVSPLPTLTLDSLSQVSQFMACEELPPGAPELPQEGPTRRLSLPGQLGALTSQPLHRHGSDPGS

[24] = Mutagenicity in Salmonella typhimurium TA1537 at 1.5 to 1000 ug per plate by AMES test; format: toxicity, Salmonella enterica subsp. enterica serovar Typhimurium; details: dose 1.5-1000 µg
TMD8 [25] = assay: Antitumor activity against human TMD8 cells xenografted in female CB-17 SCID nude mouse assessed as tumor suppression at 12.5 to 25 mg/kg, po administered twice daily for 21 days; format: functional, organism-based; details: dose 12.5-25 mg/kg, time 21.0 day
TMD8 [26] = assay: Antitumor activity against human TMD8 cells xenografted in female CB-17 SCID nude mouse assessed as tumor growth inhibition at 50 mg/kg, po administered twice daily for 21 days; format: functional; details: TMD8, 504 h, time 21 day, read-out: TGI
[27] = Toxicity in female CB-17 SCID nude mouse xenografted with human TMD8 cells assessed as effect on body weight at 12.5 to 50 mg/kg, po administered twice daily for 21 days; format: organism-based; details: in vivo, 504 h, dose 12.5-50 mg/kg, time 21 day
TMD8 [28] = assay: In vivo inhibition of BTK in female CB-17 SCID nude mouse xenografted with human TMD8 cells assessed as reduction in p-BTK (Tyr223) expression at 12.5 to 50 mg/kg, po administered twice daily for 21 days; format: functional, organism-based; details: dose 12.5-50 mg/kg, time 21.0 day
[29] = Toxicity in female CB-17 SCID nude mouse xenografted with human TMD8 cells assessed as reduction in white blood cells at 50 mg/kg, po administered twice daily for 21 days; format: organism-based; details: in vivo, 504 h, time 21 day
[30] = Toxicity in female CB-17 SCID nude mouse xenografted with human TMD8 cells assessed as reduction in lymphocytes at 50 mg/kg, po administered twice daily for 21 days; format: organism-based; details: in vivo, 504 h, time 21 day
[31] = Toxicity in female CB-17 SCID nude mouse xenografted with human TMD8 cells assessed as reduction in monocytes at 50 mg/kg, po administered twice daily for 21 days; format: organism-based; details: in vivo, 504 h, time 21 day
[32] = Toxicity in female CB-17 SCID nude mouse xenografted with human TMD8 cells assessed as effect on red blood cells at 50 mg/kg, po administered twice daily for 21 days; format: organism-based; details: in vivo, 504 h, time 21 day
[33] = Mutagenicity in Salmonella typhimurium TA100 at 1.5 to 1000 ug per plate in presence of liver microsomes by AMES test; format: toxicity, Salmonella enterica subsp. enterica serovar Typhimurium; details: dose 1.5-1000 µg
[34] = Mutagenicity in Salmonella typhimurium TA1535 at 1.5 to 1000 ug per plate in presence of liver microsomes by AMES test; format: toxicity, Salmonella enterica subsp. enterica serovar Typhimurium; details: dose 1.5-1000 µg

T1 sequence (Q06187 whole entry): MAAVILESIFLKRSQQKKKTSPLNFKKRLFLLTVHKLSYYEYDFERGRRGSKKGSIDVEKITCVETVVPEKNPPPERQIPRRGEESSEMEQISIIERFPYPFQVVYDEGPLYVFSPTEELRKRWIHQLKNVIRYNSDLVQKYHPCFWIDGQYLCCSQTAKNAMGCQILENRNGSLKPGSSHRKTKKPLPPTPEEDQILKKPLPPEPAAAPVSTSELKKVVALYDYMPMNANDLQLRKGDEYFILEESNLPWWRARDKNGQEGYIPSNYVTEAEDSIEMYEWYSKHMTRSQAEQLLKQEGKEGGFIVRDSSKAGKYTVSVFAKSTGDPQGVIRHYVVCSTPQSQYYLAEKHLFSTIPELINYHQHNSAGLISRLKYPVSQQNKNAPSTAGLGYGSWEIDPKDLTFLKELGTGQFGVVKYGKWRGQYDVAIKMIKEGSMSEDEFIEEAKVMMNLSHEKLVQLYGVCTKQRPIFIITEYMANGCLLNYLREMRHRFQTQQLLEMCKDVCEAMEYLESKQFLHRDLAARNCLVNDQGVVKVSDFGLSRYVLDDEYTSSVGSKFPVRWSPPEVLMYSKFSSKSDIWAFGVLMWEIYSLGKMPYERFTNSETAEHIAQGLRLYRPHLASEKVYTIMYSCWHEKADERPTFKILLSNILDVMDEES

- pIC50 [1]: 9.15
- Tmax [3]: 1.8 min
- Cmax [4]: 2250 ng/mL
- half-life [5]: 40.2 min
- Vd [6]: 2.79 L/kg
- clearance [7]: 47.8 mL/min/kg
- bioavailability [8]: 41%
- Tmax [9]: 23.4 min
- Cmax [10]: 1440 ng/mL
- Activity [11]: 44%
- pIC50 (OCI-Ly3): < 5.00
- pIC50 (SU-DHL-6): < 5.00
- pIC50 (Ramos): < 5.00
- pIC50 [12]: 8.83
SMILES: C=CC(=O)N1CC=C(c2c[nH]c3ncnc(-c4ccc(CNC(=O)c5ccccc5)c(F)c4)c23)CC1
- pIC50 (TMD8 [2]): 8.59
- pIC50 (Rec1): 8.77
- pIC50 (Pfeiffer): < 5.00
- pIC50 (SUD4): < 5.00
- pIC50 (DOHH-2): 5.28
- Activity (TMD8 [13]): 33%
- Activity (TMD8 [14]): 49.3%
- Activity (TMD8 [15]): 11.8%
- Activity (TMD8 [16]): 59.2%
- Activity (TMD8 [17]): 26.4%
- Activity (TMD8 [18]): 63%
- Activity (TMD8 [19]): 24.6%
- Activity (TMD8 [20]): 6.4%
- Activity (TMD8 [21]): 19%
- Activity (TMD8 [22]): 25.2%
- pIC50 [23]: 5.36
- Activity [24]: Non-Toxic
- Activity (TMD8 [25]): Active
- inhibition in vivo at 50 mg/kg (TMD8 [26]): 104%
- Activity [27]: Non-Toxic
- Activity (TMD8 [28]): Active
- Activity [29]: Toxic
- Activity [30]: Toxic
- Activity [31]: Toxic
- Activity [32]: Non-Toxic
- Activity [33]: Non-Toxic
- Activity [34]: Non-Toxic
